Measurements taken from US8394967B2, “Antioxidant inflammation modulators: C-17 homologated oleanolic acid derivatives” (Reata Pharmaceuticals, Inc., priority 2008, dated 2013).

How the values were obtained:
[1] = Aqueous solubility determination (Millipore Multiscreen solubility filter plate, UV/vis); type: physicochemical; conditions: Universal Aqueous Buffer pH 7.4, 90 minutes at room temperature
Method: Aqueous Solubility Determination. The following procedure was used to obtain the aqueous solubility results summarized in Example 4. Step 1. Determination of optimal UV/vis wavelengths and generation of standard curves for a compound of interest: • (1) For eight standard calibration curves (one plate), prepare 34 mL of 50:50 (v:v) universal buffer:acetonitrile in a 50 mL tube. • (2) Using a multichannel pipet, dispense (in μL) the buffer:acetonitrile in a deep well plate as follows:
• (6) Cover plate with lid and shake (200-300 rpm) at room temperature for 20 minutes. • (7) Mix all wells by pipetting up and down 10 times. • (8) Transfer 120 μL from each well to a UV transparent plate. Cover and shake for 3-5 minutes. Remove any bubbles in the wells using a pipet. • (9) Read from 220 nm to 500 nm at 10 nm increments on a spectrophotometer (e.g., SpectraMax®).
Step 2. […]
Solubility Protocol: • (a) Add 285 μL of Universal Aqueous Buffer to desired wells of the Millipore™ Multiscreen® Solubility filter plate. • (b) Add 15 μL of 10 mM compound in DMSO to the appropriate wells. […] Remove any bubbles with a pipet. • (i) Measure the absorbance of each well in the plate on the spectrophotometer (UV/vis) at the desired wavelength. […]
The aqueous solubility of the compounds shown here was determined using the procedures outlined in Example 1.

[2] = TP levels in mouse brain after feeding in diet (LC/MS); type: in vivo; conditions: CD-1 mice fed 200 or 400 mg/kg diet for 3.5 days
Method: FIG. 7. […] CD-1 mice were fed either 200 or 400 mg/kg diet of either TP-319 or TP-500 for 3.5 days, and TP levels in the brains of the mice were analyzed by LC/MS. The structures of TP-319 and TP-500 are shown herein.

SMILES	Aqueous Solubility [1]	TP levels in the brains of the mice [2]
CC1(C)CC[C@]2(N)CC[C@]3(C)[C@H](C(=O)C[C@@H]4[C@@]5(C)C=C(C#N)C(=O)C(C)(C)[C@@H]5CC[C@]43C)[C@@H]2C1 [Compound 63198]	163.6 µM	
CC1(C)CC[C@]2(N)CC[C@]3(C)[C@H](C(=O)C[C@@H]4[C@@]5(C)C=C(C#N)C(=O)C(C)(C)[C@@H]5CC[C@]43C)[C@@H]2C1 [Compound 63208]	9.49 µM	
CC1(C)CC[C@]2(C(=O)NCC(F)(F)F)CC[C@]3(C)[C@H](C(=O)C=C4[C@@]5(C)C=C(C#N)C(=O)C(C)(C)[C@@H]5CC[C@]43C)[C@@H]2C1 [TP-500]		Higher Levels in Mouse Brain than CDDO-EA (TP-319)
